ChEMBL document CHEMBL5113486, “Hit-to-lead optimization of novel phenyl imidazole carboxamides that are active against Leishmania donovani” (Eur J Med Chem, 2022)
In brackets after ≈: the same amount, converted by molar mass.

What was measured:
[1] = Kinetic solubility of the compound at pH 6.5 by nephelometry; format: physicochemical; conditions: buffer, read-out: Kinetic_solubility
[2] = Metabolic stability in human liver microsomes assessed as intrinsic clearance measured per mg protein; format: ADME, Microsome; conditions: read-out: CLH
[3] = Cytotoxicity against human HepG2 cells assessed as cell growth inhibition; format: toxicity, cell-based
[4] = Metabolic stability in human liver microsomes assessed as half-life; format: ADME, Microsome
[5] = Cytotoxicity against human THP-1 cells assessed as cell growth inhibition; format: toxicity, cell-based
[6] = Metabolic stability in mouse liver microsomes assessed as half life; format: ADME, Microsome
[7] = test system: Leishmania donovani; assay: Antileishmanial activity against Leishmania donovani axenic amastigotes assessed as growth inhibition by fluorescence intensity readout assay; format: functional, organism-based
[8] = Lipophilicity, log P of the compound; format: physicochemical; conditions: octanol/water
[9] = Cytotoxicity against human HepG2 cells assessed as cell growth inhibition at 100 uM; format: toxicity, cell-based; conditions: read-out: Activity
[10] = Selectivity index, ratio of CC50 for cytotoxicity against human THP-1 cells to IC50 for antileishmanial activity against Leishmania donovani infected in human THP-1 cells; format: toxicity, cell-based; conditions: read-out: Ratio CC50/IC50
[11] = Metabolic stability in mouse liver microsomes assessed as intrinsic clearance measured per mg protein; format: ADME, Microsome; conditions: read-out: CLH
[12] = Kinetic solubility of the compound at pH 2.0 by nephelometry; format: physicochemical; conditions: buffer, read-out: Kinetic_solubility
[13] = test system: Leishmania donovani; assay: Antileishmanial activity against Leishmania donovani infected in human THP-1 cells assessed as growth inhibition at 100 uM by intramacrophage assay; format: functional; parameters: scale not given: the % may be the effect or the level left
[14] = test system: Leishmania donovani; assay: Antileishmanial activity against Leishmania donovani infected in human THP-1 cells assessed as growth inhibition by intramacrophage assay; format: functional, organism-based
[15] = Solubility of the compound in DMSO; format: physicochemical
[16] = Metabolic stability in mouse liver microsomes assessed as half life measured at 2 to 5 mins; format: ADME, Microsome; conditions: time 2-5 min
[17] = Metabolic stability in mouse liver microsomes assessed as intrinsic clearance measured per mg protein at 2 to 5 mins; format: ADME, Microsome; conditions: time 2-5 min, read-out: CLH
[18] = Solubility of the compound upto 800 uM; format: physicochemical
[19] = Drug degradation in human liver microsomes; format: ADME, Microsome; conditions: read-out: Drug degradation

SMILES | CC50 [5] | inhibition at 100 µM [9] | selectivity ratio [10] | Activity [13] | IC50 [14] | also measured
COc1ccc(-c2cnc(NC(=O)c3ccc(F)cc3)n2C)cc1 | ≥ 50 µM | < 50% | > 8.3 | – | – | solubility kinetic [1]: < 1.6 µg/mL; microsomal CLint [2]: 30 µL/min/mg; CC50 [3]: 100 µM; half-life [4]: 59 min; half-life [6]: 4 min; IC50 [7]: 3.2 µM; logP [8]: 3.6; microsomal CLint [11]: 396 µL/min/mg; solubility kinetic [12]: 12.5 µg/mL (≈ 38.4 µM)
COc1ccc(-c2cnc(NC(=O)c3cc(-c4ccccn4)n[nH]3)n2C)cc1 | ≥ 50 µM | < 50% | > 19 | – | – | CC50 [3]: 100 µM; IC50 [7]: 4 µM; logP [8]: 3.2
COc1ccc(-c2cnc(NC(=O)C3CCNCC3)n2C)cc1 | > 100 µM | < 50% | > 1 | <50% | > 100 µM | –
COc1ccc(-c2cnc(NC(=O)C3CCCCC3)n2C)cc1 | > 100 µM | < 50% | > 1 | <50% | > 100 µM | solubility [15]: Insoluble
COc1ccc(-c2cnc(NC(=O)c3cccc(F)c3)n2C)cc1 | > 100 µM | < 50% | – | <50% | > 100 µM | –
Cn1c(-c2ccccc2)cnc1NC(=O)C1CCCCC1 | > 100 µM | < 50% | > 2.2 | – | 46 µM | –
Cc1cccc(-c2cnc(NC(=O)c3ccc(F)cc3)n2C)c1 | > 100 µM | < 50% | > 1.3 | – | 79 µM | –
COc1ccc(-c2cnc(NC(=O)c3ccn[nH]3)n2C)cc1 | > 100 µM | < 50% | > 1 | <50% | > 100 µM | –
COc1ccc(-c2cnc(NC(=O)c3ccccc3)n2C)cc1 | > 100 µM | < 50% | > 3.6 | – | 28 µM | solubility [15]: Insoluble
Cc1ccccc1C(=O)Nc1ncc(-c2ccccc2)n1C | > 100 µM | < 50% | > 1.8 | – | 57 µM | –
O=C(Nc1ncc(-c2ccccc2)o1)c1ccc(F)cc1 | 17 µM | – | 15 | – | 1.1 µM | solubility kinetic [1]: 6.3 µg/mL (≈ 22.3 µM); half-life [16]: 5 min; microsomal CLint [17]: 352 µL/min/mg; microsomal CLint [2]: 90 µL/min/mg; half-life [4]: 19 min; solubility kinetic [12]: 25 µg/mL (≈ 88.6 µM)
COc1ccc(-c2cnc3nc(-c4ccc(F)cc4)[nH]c3c2)cc1 | > 100 µM | < 50% | > 1 | <50% | > 100 µM | solubility [18]: Insoluble
COc1ccc(-c2cnc(NC(=O)c3ccc([N+](=O)[O-])cc3)n2C)cc1 | > 100 µM | < 50% | > 1 | <50% | > 100 µM | –
COc1ccc2nc(NC(=O)c3ccc(F)cc3)n(C)c2c1 | > 100 µM | < 50% | > 2.3 | – | 44 µM | –
Cn1c(-c2ccccc2F)cnc1NC(=O)c1ccc(F)cc1 | > 100 µM | < 50% | > 1 | <50% | > 100 µM | –
COc1ccc(-c2cnc(NC(=O)c3ccc(C#N)cc3)n2C)cc1 | > 100 µM | < 50% | > 1 | <50% | > 100 µM | –

SMILES | CC50 [5] | inhibition at 100 µM [9] | selectivity ratio [10] | Activity [13] | IC50 [14] | also measured
Cn1c(-c2ccccc2)cnc1NC(=O)c1ccc(F)cc1 | > 100 µM | < 50% | > 2.8 | – | 36 µM | solubility kinetic [1]: 25 µg/mL (≈ 84.7 µM); solubility kinetic [12]: 25 µg/mL (≈ 84.7 µM)
Cn1c(-c2ccc(F)cc2)cnc1NC(=O)c1ccc(F)cc1 | > 100 µM | < 50% | > 1 | <50% | > 100 µM | –
COc1ccc(-c2nc3ncc(-c4ccc(F)cc4)cc3[nH]2)cc1 | > 100 µM | < 50% | > 1 | <50% | > 100 µM | solubility [18]: Insoluble
COc1ccc(-c2cnc(NC(=O)c3ncc[nH]3)n2C)cc1 | > 100 µM | < 50% | > 9.1 | <50% | 11 µM | solubility kinetic [1]: 6.3 µg/mL (≈ 21.2 µM); microsomal CLint [2]: < 7 µL/min/mg; half-life [4]: > 255 min; half-life [6]: 3 min; metabolised [19]: < 15%; microsomal CLint [11]: 511 µL/min/mg; solubility kinetic [12]: > 100 µg/mL
COc1ccc(-c2cnc(NC(=O)c3cccc(C#N)c3)n2C)cc1 | > 100 µM | < 50% | > 1 | <50% | > 100 µM | –
COc1ccc(-c2cnc(NC(=O)c3cccc(C)c3)n2C)cc1 | > 100 µM | < 50% | > 1 | – | > 100 µM | solubility [15]: Insoluble
COc1ccc(-c2cnc(NC(C)=O)n2C)cc1 | > 100 µM | < 50% | > 1 | <50% | > 100 µM | –
CCCCn1c(-c2ccc(OC)cc2)cnc1NC(=O)c1ccc(F)cc1 | > 100 µM | < 50% | > 5.6 | <50% | > 100 µM | –
COc1cccc(-c2cnc(NC(=O)c3ncc[nH]3)n2C)c1 | > 100 µM | < 50% | > 12 | – | 8.1 µM | –
COc1ccc(-c2noc(NC(=O)c3ccc(F)cc3)c2C)cc1 | > 100 µM | < 50% | > 1 | <50% | > 100 µM | –
COc1ccc(-c2ccc(NC(=O)c3ccc(F)cc3)nc2)cc1 | > 100 µM | < 50% | > 1 | <50% | > 100 µM | solubility [15]: Insoluble
CCCC(=O)Nc1ncc(-c2ccc(OC)cc2)n1C | > 100 µM | < 50% | > 1 | <50% | > 100 µM | –
COc1ccc(-c2cnc(NC(=O)c3cnco3)n2C)cc1 | > 100 µM | < 50% | > 1 | <50% | > 100 µM | –
COc1ccc(-c2cnc(NC(=O)c3ccccc3F)n2C)cc1 | > 100 µM | < 50% | > 1 | <50% | > 100 µM | –
COc1ccc(-c2cnc(NC(=O)c3cnc[nH]3)n2C)cc1 | > 100 µM | < 50% | > 1 | <50% | > 100 µM | –
